Reference: article PMC7140380, “Magnolia extract is effective for the chemoprevention of oral cancer through its ability to inhibit mitochondrial respiration at complex I” (Cell Communication and Signaling : CCS, 2020)
pIC50: −log10 of the molar value. Where two headings read alike, the source gives them in different places.

Legend:
STAT3 = experiment: Western blot, STAT3 phosphorylation in CAL 27 cells; type: cell-based, human; conditions: single agents at concentrations close to their IC50 (HNK 20 μM, MGN 40 μM, MHNK 20 μM)
Method: (§1) CAL 27 cells were treated with vehicle control (DMSO), HNK (20 μM), MGN (40 μM), and MHNK (20 μM) for 4 h and then lysed with a lysis buffer containing a proteinase inhibitor cocktail (Cell Signaling Technology, Danvers, MA), sheared 10 times by passage through a 28-gauge needle, and centrifuged at 16,000 g for 30 min; the protein concentration of the supernatant was determined by the Bradford method. Lysates, normalized for equal protein loading, were analyzed by the PathScan RTK Signaling Array (Cell Signaling Technology, Danvers, MA) and the LI-COR Odyssey infrared imaging system (LI-COR Biosciences-Biotechnology, Lincoln, NE).
(§2) Cells were lysed with RIPA buffer containing a proteinase inhibitor cocktail (Fisher Scientific, Pittsburg, PA), sheared 10 times by passage through a 28-gauge needle, and centrifuged at 16,000 g for 30 min; the supernatants were normalized for protein concentration as determined by the Bradford method. Lysates were boiled for 5 min and resolved on 4–12% sodium dodecyl sulfate polyacrylamide gel electrophoresis (SDS-PAGE) gels (Invitrogen, Carlsbad, CA). The blots were probed with the following primary antibodies from Cell Signaling Technology (Danvers, MA): p-STAT3-Tyr705, p-STAT3-Ser727, HKII, P70, and P70S6K. The following antibodies were from Santa Cruz Biotechnology (Dallas, TX): anti-actin, anti-Prx1 and anti-Prx3.

CAL 27 cells = experiment: Cell proliferation assay (IncuCyte real-time cell confluence); type: cell-based; conditions: Homo sapiens
Method: Cells were seeded in 96-well tissue culture plates at 1000–3000 cells per well. Twenty-four hours after seeding, cells were exposed to various concentrations of ME, whereas control cells received fresh medium with an equivalent amount of dimethyl sulfoxide (DMSO) vehicle. Plates were incubated at 37 °C under 5% CO2 and monitored using the IncuCyte Live Cell analysis system (Essen Bioscience, Ann Arbor, MI). […] All assays were performed in triplicate or quadruplicate.

p70S6K = experiment: Western blot, p70S6K phosphorylation in CAL 27 cells; type: cell-based, human; conditions: single agents at concentrations close to their IC50 (HNK 20 μM, MGN 40 μM, MHNK 20 μM)
Method: as §1, §2

hexokinase II (HKII) = experiment: Western blot, HKII levels in CAL 27 cells; type: cell-based, human; conditions: single agents at concentrations close to their IC50 (HNK 20 μM, MGN 40 μM, MHNK 20 μM)
Method: as §1, §2

4NQO-induced oral cancer = experiment: 4NQO-induced oral carcinogenesis in C57BL/6 J mice; type: in vivo; conditions: 20 mg/kg oral
Method: Oral tumors were induced by exposing mice to 4NQO at a dose of 50 μg/mL in drinking water for 16 consecutive weeks. One week following the first dose of 4NQO, mice were given ME or the individual active components in ME via oral administration (five days/week for the next 20 consecutive weeks). Animal body weights and 4NQO-water consumption were monitored weekly. 21 weeks after the start of 4NQO treatment, mice were imaged by MRI. Mice were euthanized and oral tissues were collected to assess total oral tumor volume (sum of V) for each mouse. A portion of normal appearing tissue and oral tumor from each mouse were flash frozen in liquid nitrogen for molecular analysis. Remaining oral tissues were embedded in paraffin for pathologic analysis as previously described and for immunohistochemistry (IHC) analysis of biomarkers. In addition, the oral cavity, esophagus, stomach/forestomach, lung, and other major organs were examined carefully for any signs of abnormality.
Mice were imaged using a 9.4 T MRI (Bruker, Billerica, MA) with a custom birdcage style Quadrature coil (Doty Scientific, Columbia, SC). Mice were anesthetized (2 min) initially in a chamber using a mixture of oxygen (3 L/min) and isofluorane (4%). Once an animal was fully anesthetized, optical lubricant was placed on each eye to prevent drying. […]

[1] = CAL-27, read-out: IC50 as single agents, cell proliferation

| SMILES | phosphorylation of STAT3 (p-STAT3 Ser727) (STAT3) | pIC50 (CAL 27 cells; CAL 27 cells, single agents, read-out: IC50 as single agents, cell proliferation) | phosphorylation of p70S6K (p70S6K) | pIC50 (CAL 27 cells; [1]) | levels of hexokinase II (HKII) (hexokinase II (HKII)) | suppression of 4NQO-induced oral tumors as sole agent, compared with the other single agents (4NQO-induced oral cancer) |
| --- | --- | --- | --- | --- | --- | --- |
| C=CCc1ccc(O)c(-c2ccc(O)c(CC=C)c2)c1 [HNK, 5,3′-diallyl-2,4′-dihydroxybiphenyl] | inhibited | 4.72 | – | – | – | – |
| C=CCc1ccc(O)c(-c2cc(CC=C)ccc2O)c1 [MGN, 5,5′-diallyl-2,2′-dihydroxybiphenyl] | – | – | inhibited | 4.31 | – | – |
| C=CCc1ccc(O)c(-c2ccc(OC)c(CC=C)c2)c1 [MHNK, 3,5′-diallyl-2′-hydroxy-4-methoxybiphenyl] | – | – | – | 4.72 | decreased | greatest effect |
